These results are taken from patent US20260263553A1, “METHODS OF TREATING A LOCALIZED INFECTION WITH LOCALLY ADMINISTERED ANTIBIOTICS” (Osteal Therapeutics, Inc., priority 2023, published 2026).

The conditions of series [1]: in vivo; cited from earlier work.
Series [2] is described as follows: Serum concentrations during 7-day local irrigation of the infected joint (PJI clinical investigation). Particulars: daily dose 2.6 g at 2,500 mcg/mL by irrigation for 7 days. Format: in vivo, human. How it is done: Irrigation of vancomycin and tobramycin within the manufacturer's recommended systemic dose for the treatment of PJI has been investigated clinically. A daily dose of 2.6 g vancomycin at a concentration of 2,500 mcg/mL and a daily dose of 80 mg of tobramycin at 1,600 mcg/mL were administered by irrigation to the infected joint for 7 days following stage one surgery of a two-stage exchange arthroplasty treatment. […] The serum concentrations of vancomycin over a 7-day period for 37 human subjects who received local irrigation of 50 cc at a concentration of 2,500 mcg/mL intermittently are shown in FIG. 6.

A further series relates to common PJI organisms. The experiment in a line: Minimum biofilm eradication concentration (MBEC). Format: cell-based. Conditions: multiple common PJI organisms. The source says:
The formation of biofilm, a frequent occurrence in infected wounds with a medical device in situ such as PJI, BII, or FRI, begins early after onset of infection and provides an additional mechanism of resistance to antibiotic therapy. It is well established that the organisms in a mature biofilm structure, formed in a matter of days or a few weeks, are not susceptible to common antibiotics at the typical MIC of planktonic counterparts. […] The concentration at which eradication of an organism in a biofilm is accomplished is known as the minimum biofilm eradication concentration (MBEC) for the specific antimicrobial agent and organism tested. MBEC is not the same for all antimicrobial agents used to treat the same organism, nor is it the same for one antimicrobial agent applied to different strains or organisms.

For series [3] the following is noted: instillation of 50,000-100,000 mcg/mL once or twice daily into the joint space; cited from earlier work.

Regarding `NC[C@H]1O[C@H](O[C@H]2[C@H](O)[C@@H](O[C@H]3O[C@H](CO)[C@@H](O)[C@H](N)[C@H]3O)[C@H](N)C[C@@H]2N)[C@H](N)C[C@@H]1O` [tobramycin], in series [1], the “maximum safe level, peak serum concentrations” value is 10 µg/mL and the “sustained trough levels associated with toxicity” value is > 2 µg/mL.

With `CN[C@H](CC(C)C)C(=O)N[C@H]1C(=O)N[C@@H](CC(N)=O)C(=O)N[C@H]2C(=O)N[C@H]3C(=O)N[C@H](C(=O)N[C@H](C(=O)O)c4cc(O)cc(O)c4-c4cc3ccc4O)[C@H](O)c3ccc(c(Cl)c3)Oc3cc2cc(c3O[C@@H]2O[C@H](CO)[C@@H](O)[C@H](O)[C@H]2O[C@H]2C[C@](C)(N)[C@H](O)[C@H](C)O2)Oc2ccc(cc2Cl)[C@H]1O` [vancomycin], the serum concentration levels result in series [2] is reported as “well below the safe serum concentration”. For the same molecule, the MBEC result with common PJI organisms is listed as “greater than 4,000 mcg/mL”. In addition, the “maximum safe level, trough serum concentrations” value in series [1] is 30 µg/mL. For the same molecule, the serum concentrations result in series [3] is on record as “serum concentrations exceeding safe limits in multiple patients”.
